Source: PMC6471532, “Drug Transport across Porcine Intestine Using an Ussing Chamber System: Regional Differences and the Effect of P-Glycoprotein and CYP3A4 Activity on Drug Absorption” (Pharmaceutics, 2019)
Converted amounts (≈) assume the structure as drawn.

Tests used:
[1] = Segmental drug permeation across porcine duodenum, jejunum, ileum and colon, Ussing chamber; format: in vitro ADME, pig; settings: female, Swiss noble, pig, 100 µM in KBR
[2] = test system: porcine duodenum, jejunum, ileum and colon; experiment: as above; format: in vitro ADME, pig; settings: KBR, 2 h
human intestine = settings: Ussing chamber; cited from earlier work
[3] = Solubility in KBR, FaSSIF V2 and FeSSIF V2
[4] = Passive absorption across viable porcine intestine (jejunum) ex vivo, Ussing chamber, from KBR and biorelevant media; settings: female, Swiss noble, pig
[5] = test system: viable porcine intestine (jejunum); experiment: as above; settings: for QDEP FaSSIF V2 / QDEP FeSSIF V2 / QDEP KBR: amount deposited in intestine at 2 h as % of donor; for QPERM FaSSIF V2 / QPERM FeSSIF V2 / QPERM KBR: amount permeated at 2 h as % of donor
human jejunum = settings: cited from earlier work; for Peff,human^a In Vivo: Loc-I-Gut, jejunal segment, cylindrical surface area; for Peff,human^b In Vivo: Loc-I-Gut with physiological estimates of the surface area for absorption
CYP3A4 [6] = settings: jejunum
CYP3A4 [7] = experiment: in vitro; settings: female, Swiss noble, pig, jejunum, 100 µM in KBR
[8] = source not given; cited from earlier work
P-gp [9] = target: T1, P-gp (Sus scrofa, UniProt K7GMM7)
P-gp [10] = target: T1, P-gp; experiment: in vitro; settings: female, Swiss noble, pig, pH 7.4, with verapamil hydrochloride 100 µM in the donor compartment
[11] = KBR buffer, pH 7.4, aqueous buffer

T1 sequence (K7GMM7 1-1248): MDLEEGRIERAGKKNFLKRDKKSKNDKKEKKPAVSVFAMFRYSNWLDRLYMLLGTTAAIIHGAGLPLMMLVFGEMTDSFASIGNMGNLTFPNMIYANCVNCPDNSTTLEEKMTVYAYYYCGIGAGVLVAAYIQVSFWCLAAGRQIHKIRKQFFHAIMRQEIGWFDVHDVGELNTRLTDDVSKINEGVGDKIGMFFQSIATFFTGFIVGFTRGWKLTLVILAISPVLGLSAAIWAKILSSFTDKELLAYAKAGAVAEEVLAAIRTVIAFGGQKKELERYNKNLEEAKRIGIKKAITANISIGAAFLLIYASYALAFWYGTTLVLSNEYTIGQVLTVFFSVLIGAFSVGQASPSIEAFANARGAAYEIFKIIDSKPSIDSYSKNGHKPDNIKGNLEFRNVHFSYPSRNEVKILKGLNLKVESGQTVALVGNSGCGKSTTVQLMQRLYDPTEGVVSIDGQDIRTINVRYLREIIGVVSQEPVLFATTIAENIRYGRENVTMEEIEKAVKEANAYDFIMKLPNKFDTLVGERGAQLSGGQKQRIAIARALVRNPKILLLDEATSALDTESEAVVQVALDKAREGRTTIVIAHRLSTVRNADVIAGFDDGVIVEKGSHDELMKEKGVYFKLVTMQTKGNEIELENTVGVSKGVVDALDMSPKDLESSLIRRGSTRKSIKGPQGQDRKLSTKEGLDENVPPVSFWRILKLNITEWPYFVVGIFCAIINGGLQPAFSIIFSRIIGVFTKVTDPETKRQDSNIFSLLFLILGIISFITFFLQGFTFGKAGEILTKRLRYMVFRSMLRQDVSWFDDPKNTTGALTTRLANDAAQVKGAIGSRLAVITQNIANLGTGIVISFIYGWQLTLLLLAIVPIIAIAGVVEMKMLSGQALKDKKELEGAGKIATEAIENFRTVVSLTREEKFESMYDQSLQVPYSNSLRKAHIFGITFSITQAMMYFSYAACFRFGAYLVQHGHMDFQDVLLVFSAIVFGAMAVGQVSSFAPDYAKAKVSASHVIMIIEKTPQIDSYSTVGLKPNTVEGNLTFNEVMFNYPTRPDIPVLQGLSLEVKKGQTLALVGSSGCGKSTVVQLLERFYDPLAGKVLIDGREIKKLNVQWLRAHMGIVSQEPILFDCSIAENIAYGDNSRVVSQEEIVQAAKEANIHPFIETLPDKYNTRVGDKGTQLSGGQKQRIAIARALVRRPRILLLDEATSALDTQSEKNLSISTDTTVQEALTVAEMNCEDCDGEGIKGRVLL

SMILES: COCCc1ccc(OCC(O)CNC(C)C)cc1 (racemic) [Metoprolol, (+/−)-Metoprolol]
- Papp at 120 min, 100 µM ([1]; pH 7.4, colon, read-out: Papp,pig Ex Vivo Colon): 17.6 ± 5.41 ×10⁻⁶ cm/s
- Papp at 120 min, 100 µM ([1]; pH 7.4, duodenum, read-out: Papp,pig Ex Vivo Duodenum): 0.39 ± 0.16 ×10⁻⁶ cm/s
- Papp at 120 min, 100 µM ([1]; pH 7.4, ileum, read-out: Papp,pig Ex Vivo Ileum): 6.87 ± 1.23 ×10⁻⁶ cm/s
- Papp at 120 min, 100 µM ([1]; pH 7.4, jejunum, read-out: Papp,pig Ex Vivo Jejunum): 10.6 ± 2.92 ×10⁻⁶ cm/s
- QDEP Colon ([2]; colon): 0.02 ± 0.00%
- QPERM Colon ([2]; colon): 1.65 ± 0.87 (6) %
- QDEP Duodenum ([2]; duodenum): 2.35 ± 0.25%
- QPERM Duodenum ([2]; duodenum): 0.14 ± 0.08 (5) %
- QDEP Ileum ([2]; ileum): 1.89 ± 0.67%
- QPERM Ileum ([2]; ileum): 0.83 ± 0.09 (5) %
- QPERM Jejunum ([2]; jejunum): 0.18 ± 0.05 (4) %
- Papp,human jejunum (human intestine): 15.9 ± 3.69 10^−6 cm/s
- solubility ([3]; FaSSIF V2, pH 6.5, fassif): 43800 ± 15800 µg/mL (≈ 164 mM)
- solubility ([3]; FeSSIF V2, pH 5.8, fessif): 381000 ± 33800 µg/mL (≈ 1420 mM)
- solubility [3, 11]: 298000 ± 13900 µg/mL (≈ 1110 mM)
- Papp at 120 min, 100 µM ([4]; pH 5.8): 5.79 ± 1.38 ×10⁻⁶ cm/s
- Papp at 120 min, 100 µM ([4]; pH 6.5): 7.62 ± 1.41 ×10⁻⁶ cm/s
- Papp at 120 min, 100 µM ([4]; pH 7.4): 10.6 ± 2.92 ×10⁻⁶ cm/s
- QDEP FaSSIF V2 [5]: 0.12 ± 0.03%
- QDEP FeSSIF V2 [5]: 0.22 ± 0.01%
- QDEP KBR [5]: 0.28 ± 0.04%
- QPERM FaSSIF V2 [5]: 0.89 ± 0.19%
- QPERM FeSSIF V2 [5]: 0.74 ± 0.08%
- QPERM KBR [5]: 0.18 ± 0.05%

SMILES: NC(=O)N1c2ccccc2C=Cc2ccccc21 [Carbamazepine]
- Peff,human^a In Vivo (human jejunum): 430 n.a. [31] 10^−6 cm/s
- solubility ([3]; FaSSIF V2, pH 6.5, fassif): 320 ± 10 µg/mL (≈ 1.35 mM)
- solubility ([3]; FeSSIF V2, pH 5.8, fessif): 730 ± 10 µg/mL (≈ 3.09 mM)
- solubility [3, 11]: 200 ± 20 µg/mL (≈ 0.846 mM)
- Papp at 120 min, 100 µM ([4]; pH 5.8): 4.26 ± 0.96 ×10⁻⁶ cm/s
- Papp at 120 min, 100 µM ([4]; pH 6.5): 5.97 ± 0.52 ×10⁻⁶ cm/s
- Papp at 120 min, 100 µM ([4]; pH 7.4): 7.81 ± 5.69 ×10⁻⁶ cm/s
- QDEP FeSSIF V2 [5]: 3.45 ± 0.52%
- QDEP KBR [5]: 1.44 ± 0.16%
- QPERM FeSSIF V2 [5]: 0.58 ± 0.22%
- QPERM KBR [5]: 2.39 ± 0.42%

SMILES: NS(=O)(=O)c1cc(C(=O)O)c(NCc2ccco2)cc1Cl [Furosemide]
- Peff,human^b In Vivo (human jejunum): 1–1.6 [77] 10^−6 cm/s
- Peff,human^a In Vivo (human jejunum): 5 n.a. [31] 10^−6 cm/s
- QDEP FaSSIF V2 [5]: 2.22 ± 0.17%
- QDEP FeSSIF V2 [5]: 1.52 ± 0.24%

SMILES: NS(=O)(=O)c1cc2c(cc1Cl)NCNS2(=O)=O [Hydrochlorothiazide]
- Peff,human^a In Vivo (human jejunum): 4 n.a. [31] 10^−6 cm/s
- Papp at 120 min, 100 µM ([4]; pH 5.8): 1.37 ± 0.53 ×10⁻⁶ cm/s
- Papp at 120 min, 100 µM ([4]; pH 6.5): 0.2 ± 0.25 ×10⁻⁶ cm/s
- Papp at 120 min, 100 µM ([4]; pH 7.4): 2.88 ± 2.84 ×10⁻⁶ cm/s
- QDEP FaSSIF V2 [5]: 0.22 ± 0.11%
- QDEP FeSSIF V2 [5]: 0.74 ± 0.09%
- QPERM FaSSIF V2 [5]: 0.11 ± 0.05%
- QPERM FeSSIF V2 [5]: 0.23 ± 0.08%

SMILES: Cc1ncc2n1-c1ccc(Cl)cc1C(c1ccccc1F)=NC2 [Midazolam]
- Effect of the presence of clotrimazole on Papp,pig (CYP3A4 [6]; clotrimazole 100 µM): significantly increased
- QDEP (+CLOTR) (CYP3A4 [6]; with clotrimazole 100 µM): 7.49 ± 2.50%
- QPERM (+CLOTR) (CYP3A4 [6]; with clotrimazole 100 µM): 0.18 ± 0.08%
- QDEP (−CLOTR) (CYP3A4 [6]; without clotrimazole): 8.06 ± 1.33%
- QPERM (−CLOTR) (CYP3A4 [6]; without clotrimazole): 0.13 ± 0.09%
- Papp at 120 min, 100 µM (CYP3A4 [7]; pH 7.4, Papp,pig Ex Vivo (+CLOTR), with clotrimazole 100 µM): 0.46 ± 0.07 ×10⁻⁶ cm/s
- Papp at 120 min, 100 µM (CYP3A4 [7]; pH 7.4, Papp,pig Ex Vivo (−CLOTR), without clotrimazole): 0.183 ± 0.138 ×10⁻⁶ cm/s
- log P [8]: 3.89

SMILES: COc1ccc2cc([C@H](C)C(=O)O)ccc2c1 [Naproxen]
- Peff,human^b In Vivo (human jejunum): 27–42 [77] 10^−6 cm/s
- Peff,human^a In Vivo (human jejunum): 850 n.a. [31] 10^−6 cm/s
- QDEP FeSSIF V2 [5]: 4.74 ± 1.04%

SMILES: CN1C(C(=O)Nc2ccccn2)=C(O)c2ccccc2S1(=O)=O [Piroxicam]
- log P [8]: 3.06
- Peff,human^a In Vivo (human jejunum): 665 n.a. [31] 10^−6 cm/s
- solubility ([3]; FaSSIF V2, pH 6.5, fassif): 290 ± 20 µg/mL (≈ 0.875 mM)
- solubility ([3]; FeSSIF V2, pH 5.8, fessif): 60 µg/mL (≈ 0.181 mM)
- solubility [3, 11]: 430 ± 20 µg/mL (≈ 1.3 mM)
- Papp at 120 min, 100 µM ([4]; pH 5.8): 5.14 ± 0.78 ×10⁻⁶ cm/s
- Papp at 120 min, 100 µM ([4]; pH 6.5): 10.8 ± 3.7 ×10⁻⁶ cm/s
- Papp at 120 min, 100 µM ([4]; pH 7.4): 8.93 ± 2.03 ×10⁻⁶ cm/s
- QDEP FaSSIF V2 [5]: 5.63 ± 0.26%
- QDEP FeSSIF V2 [5]: 0.21 ± 0.04%
- QDEP KBR [5]: 4.12 ± 0.15%
- QPERM FaSSIF V2 [5]: 2.32 ± 0.79%
- QPERM FeSSIF V2 [5]: 1.13 ± 0.46%
- QPERM KBR [5]: 2.52 ± 0.70%

SMILES: CNC(=C[N+](=O)[O-])NCCSCc1ccc(CN(C)C)o1 [Ranitidine]
- Effect of the presence of verapamil on Papp,pig in the ileum (P-gp [9]; ileum, verapamil 100 µM, Student's t-test): significantly increased
- QDEP Ileum (+VER) (P-gp [9]; ileum, with verapamil 100 µM): 7.91 ± 0.74%
- QPERM Ileum (+VER) (P-gp [9]; ileum, with verapamil 100 µM): 0.25 ± 0.03 (6) %
- QDEP Ileum (−VER) (P-gp [9]; ileum, without verapamil): 1.10 ± 0.59%
- QPERM Ileum (−VER) (P-gp [9]; ileum, without verapamil): 0.55 ± 0.35 (4) %
- Difference in Papp,pig across the jejunum in the presence or absence of verapamil (P-gp [9]; jejunum, verapamil 100 µM): No statistically significant difference
- QDEP Jejunum (+VER) (P-gp [9]; jejunum, with verapamil 100 µM): 5.47 ± 0.75%
- QPERM Jejunum (+VER) (P-gp [9]; jejunum, with verapamil 100 µM): 0.23 ± 0.15 (5) %
- QDEP Jejunum (−VER) (P-gp [9]; jejunum, without verapamil): 1.32 ± 0.31%
- QPERM Jejunum (−VER) (P-gp [9]; jejunum, without verapamil): 0.67 ± 0.12 (6) %
- Papp at 120 min, 100 µM (P-gp [10]): 4.92 ×10⁻⁶ cm/s
- solubility ([3]; FaSSIF V2, pH 6.5, fassif): 15900 ± 1470 µg/mL (≈ 50.5 mM)
- solubility ([3]; FeSSIF V2, pH 5.8, fessif): 808000 ± 70500 µg/mL (≈ 2570 mM)
- solubility [3, 11]: 19600 ± 2780 µg/mL (≈ 62.5 mM)

SMILES: OCc1ncc2n1-c1ccc(Cl)cc1C(c1ccccc1F)=NC2 [α-hydroxymidazolam]
- Amount of principal metabolite in the intestinal tissue in the presence of clotrimazole (CYP3A4 [6]; parent drug 100 µM, clotrimazole 100 µM): significantly decreased
